According to patent publication US20220275534A1, “Peptide Library Production Method” (The University of Tokyo, priority 2018, published 2022):
Non-standard residues stand in square brackets, D forms with d. No end group written: not given here. *: point of attachment. prenyl = prenyl group added to Trp by KgpF, CC(C)=CC*

How the values were obtained:
KgpF [1] = assay: Modification of the same peptides with KgpF in liquid phase, Conditions 13/14 with 14 hours (Example 18; Table 17); type: biochemical, Microcystis aeruginosa; parameters: key: 5: strong intensity; 4: medium intensity; 3: weak intensity; 2: very weak intensity; 1: no peak; N/A: not observed; conditions: KgpF Liquid phase 160 μM
Experimental: (§1) (Conditions 13) • FIT system: v8s/v11.0 • 19aa-Met: 0.5 mM • ClAc-D-Tyr-tRNA^fMetCUA: 90 μM • Reaction: 37° C., 60 min. • Scale: 2.5 μL scale
(§2) After the above reaction was performed, the reaction product was incubated at 25° C. for 12 minutes.
(§3) Then, a cyclization reaction was performed under the following conditions. • Translated mixture amount: 2.5 μL (mixture obtained by the above reaction) • EDTA: 18 mM • Reaction: 42° C., 60 min. • Scale: 2.75 μL scale
(§4) (Conditions 14) • Translated mixture amount: 2.75 μL (mixture obtained under (Conditions 13)) • KOH: 6.0 mM • Mg(OAc)2: 9.0 mM • Tris-HCl (pH 8.3) 15 mM • KgpF: 160 μM • DMAPP: 2 mM • Reaction: 0° C., 20 hours
(§5) The artificial cyclic peptides shown in Table were synthesized under (Conditions 25) and were brought into contact with KgpF in solid phase under (Conditions 26). In addition, the same peptides were reacted in liquid phase under conditions shown in (Conditions 13) and (Conditions 14) except that the prenylation reaction time was changed to 14 hours.
Target sequence in this assay (as listed by the source): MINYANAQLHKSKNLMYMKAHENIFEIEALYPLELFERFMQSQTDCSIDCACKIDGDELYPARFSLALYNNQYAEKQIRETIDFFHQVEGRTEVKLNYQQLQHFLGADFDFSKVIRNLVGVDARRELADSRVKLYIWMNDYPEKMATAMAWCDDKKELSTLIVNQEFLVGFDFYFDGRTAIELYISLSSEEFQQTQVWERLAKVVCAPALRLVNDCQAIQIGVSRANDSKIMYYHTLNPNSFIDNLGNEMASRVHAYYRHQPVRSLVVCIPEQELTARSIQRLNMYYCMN

[2] = test system: KgpF immobilized onto magnetic beads; assay: Modification of artificial cyclic peptides with KgpF immobilized onto magnetic beads, solid phase (Example 18; Table 17); type: biochemical, Microcystis aeruginosa; parameters: key: 5: strong intensity; 4: medium intensity; 3: weak intensity; 2: very weak intensity; 1: no peak; N/A: not observed; conditions: KgpF Solid phase (magnetic beads) 72 μM, 4° C., 14 hours
KgpF immobilized onto magnetic beads, sequence (as listed by the source): as above
Excerpt: Dynabeads His-Tag Isolation and Pulldown (Invitrogen) was brought into contact with KgpF having a His-tag added N terminal and the KgpF was immobilized onto the magnetic beads. […] When it exceeded a predetermined amount, immobilization reached saturation.
as §5
(Conditions 25) • FIT system: v8s/v11.1 • 19aa-Met: 0.5 mM • ClAc-D-Tyr-tRNA^fMetCUA: 90 μM • Reaction: 37° C., 60 min. • Scale: 2.5 μL scale
as §2, §3
(Conditions 26) • Translated mixture amount: 2.75 μL (mixture obtained under (Conditions 25)) • KOH: 6.0 mM • Mg(OAc)2: 9.0 mM • Tris-HCl (pH 8.3) 15 mM • KgpF immobilized onto magnetic beads: 72 μM • DMAPP: 2 mM • Reaction: 4° C., 14 hours, rotation mixing

MetAP1 = MetAP1 (Homo sapiens, UniProt P53582); assay: MetAP1 inhibition test of prenylated cyclic peptide (probe fluorescence); type: biochemical; conditions: prenylated peptide at 1 μM, 5 μM or 10 μM; cofactor Mn2+ or Co2+ 100 μM; MetAP1 1 μM; 37° C., 120 min (FIG. 13)
Experimental: A MetAP1 inhibition test was performed in vitro using the prenylated Met2, Met3a-L, and Met3-1 at concentrations of 1 μM, 5 μM or 10 μM in the presence of a MetAP1 cofactor Mn^2+ or Co^2+. In the test, enzymatic activity was measured by detecting probe fluorescence, that is, fluorescence emitted depending on the enzymatic activity of MetAP1.
(Conditions) • Scale: 20 μL • Cyclic peptide: 1, 5, 10 μM • MnCl2 or CoCl2: 100 μM • MetAP1 enzymatic activity probe: 1 μM • MetAP1: 1 μM • Tris (pH7.6): 25 mM • NaCl: 75 mM • Reaction: 37° C., 120 min.
After the reaction, the fluorescence intensity of the probe was measured using a plate reader.

KgpF [3] = conditions: literature finding; cited from earlier work
KgpF [4] = assay: Prenylation of artificial cyclic peptides with 160 μM KgpF at 0° C., 20 hours (Conditions 13/14 and 19/20; Examples 10, 14, 19; Tables 6 and 18); type: biochemical, Microcystis aeruginosa; parameters: key: 5: strong intensity; 4: medium intensity; 3: weak intensity; 2: very weak intensity; 1: no peak; N/A: not observed; conditions: Table 18; Conditions 13 and 14 (160 μM KgpF, 0° C., 20 hours); NSGGVS added to C terminal
Experimental: The artificial cyclic peptides Clone-M1 to M9 shown below were obtained by translation and synthesis in the artificial translation system (Conditions 13) developed by the present inventors. The peptides thus obtained were then reacted with 160 μM KgpF in the system shown in (Conditions 14) at 0° C. for 20 hours.
as §1, §2, §3, §4
Target sequence in this assay (as listed by the source): as above
The artificial cyclic peptides shown below were obtained by translation and synthesis in the artificial translation system (Conditions 19) developed by the present inventors. The peptides thus obtained were then reacted with 160 μM KgpF in the system shown in (Conditions 20) at 0° C. for 20 hours.
(Conditions 19) • FIT system: v8s/11.0 • 19aa-Met: 0.5 mM • ClAc-D-Tyr-tRNA^fMetCUA: 90 μM • Reaction: 37° C., 60 min. • Scale: 2.5 μL scale
(Conditions 20) • Translated mixture amount: 2.75 μL (mixture obtained under (Conditions 19)) • KOH: 6.0 mM • Mg(OAc)2: 9.0 mM • Tris-HCl (pH 8.3): 15 mM • KgpF: 160 μM • DMAPP: 2 mM • Reaction: 0° C., 20 hours
Then, the compound library was provided for a step of screening cyclic peptides having interaction with an enzyme MetAP1 (Human) as in the scheme shown in FIG. 8. It has been confirmed that with regards to some of the peptides shown in FIG. 10, peptides having these sequences are modified by prenylation as shown in Table 18 by bringing them into contact with KgpF under conditions shown in (Conditions 13) and (Conditions 14).

Clone-T2 (Ac-[dY]LVRERENTWKVTC; thioether (positions not given here); not fully specified (bridges))
Peak intensity, The number of prenyl groups added 0 (KgpF [1]): 1 | Peak intensity, The number of prenyl groups added 1 (KgpF [1]): 4 | Peak intensity, The number of prenyl groups added 0 [2]: 1 | Peak intensity, The number of prenyl groups added 1 [2]: 5

Met3a-L: cyclic peptide SEQ ID NO: 362 from MetAP1 screening, Fmoc solid-phase synthesis, prenylated with KgpF (YKRKAWLC; also: cyclic, ring not given here, prenylated with KgpF)
inhibition of the enzymatic activity of MetAP1 (MetAP1): inhibit the enzymatic activity of MetAP1

Cyclic [WLNGDNNWSTP]: main-chain cyclized peptide of 11 residues formed from precursor peptide KgpE; natural substrate giving Kawaguchipeptin A (SEQ ID NO: 386) (main-chain cyclized)
prenylation by KgpF (KgpF [3]): prenylates two Trp residues

Clone-V3 (Ac-[dY]VWNVKIKPKTTKC; thioether (positions not given here); not fully specified (bridges))
Peak intensity, The number of prenyl groups added 0 (KgpF [1]): 1 | Peak intensity, The number of prenyl groups added 1 (KgpF [1]): 5 | Peak intensity, The number of prenyl groups added 0 [2]: 1 | Peak intensity, The number of prenyl groups added 1 [2]: 5

Met3: prenylated cyclic peptide identified by screening with MetAP1 as a target (Ac-[dY]KRKAW(prenyl)ICQTAVYCNSGGVS; thioether (positions not given here); not fully specified (C-terminus))
inhibition of the enzymatic activity of MetAP1 (MetAP1): inhibit the enzymatic activity of MetAP1 | Peak intensity, The number of prenyl groups added 0 (KgpF [4]): 2 | Peak intensity, The number of prenyl groups added 1 (KgpF [4]): 5

Met2: cyclic peptide SEQ ID NO: 361 from MetAP1 screening, Fmoc solid-phase synthesis, prenylated with KgpF (YKRRHCLPPAWG; also: cyclic, ring not given here, prenylated with KgpF)
inhibition of the enzymatic activity of MetAP1 (MetAP1): inhibit the enzymatic activity of MetAP1

O=C(N[C@@H](Cc1c[nH]c2ccccc12)C(=O)O)OCC1c2ccccc2-c2ccccc21 [Fmoc-Trp-OH]
prenylation by KgpF (KgpF [3]): low efficiency
